Experimental data reported in US20230270817A1, “VIMENTIN INHIBITORS” (Filamon Pty Ltd, priority 2020, published 2023).
Entries after “also recorded” stand apart in the source; their conditions may differ. Non-standard residues stand in square brackets, D forms with d. 2Nal = N[C@@H](Cc1ccc2ccccc2c1)C(=O)O

What was measured:
[1] = target: T1, hGIIA binding to full length vimentin (Homo sapiens, UniProt P08670); experiment: Colorimetric enzyme immunoassay (EIA) of inhibitor effect on the hGIIA-vimentin interaction, full length vimentin; conditions: immobilised full length vimentin, hGIIA 250 ng/mL, inhibitors 5-100 μM, FIG. 2B top panel
T1 construct: His6 tag (HHHHHH) from pET15b (N); thrombin cleavage site (LVPRGS) (N); made in house; host or cells: vimentin: Rosetta 2 E. coli (pET15b)
Experimental: (§1) Purified vimentin protein solutions (full length, coil 1 or coil 2 fragments) were diluted to 10-20 μg/mL concentration in PBS and seeded to a 96-well microplate with a 100 μL/well volume. After an overnight incubation at 4° C., the plate was emptied. Each well was then blocked with 200 μL of 1% BSA in PBS. The blocked plate was incubated for at least an overnight period at 4° C. and used within 1 week.

[2] = system: LNCaP prostate cancer cells; experiment: Murine prostate cancer xenograft model; format: in vivo, male Balb/c nu/nu mice; conditions: c2 0.1 mg/kg in saline thrice weekly, eight-week period, compared to vehicle
Experimental: Animals (male Balb/c nu/nu mice, aged six weeks, n=15 per group) were injected subcutaneously in the right rear flank with 1×10^6 LNCaP prostate cancer cells. Tumour size was monitored with calipers measuring tumour width and length and tumour volume calculated as described (Sved et al., Cancer Res, 2004. 64(19): p. 6934-40). When tumours were palpable and measured >5×5 mm, animals were randomised and entered into the study. […] Tumour volume data are mean±SE.

[3] = target: T2, vimentin coil 1 fragment (residues 96 to 253), recombinant, His-tagged (human, UniProt P08670 96-253); experiment: EIA, plate-bound vimentin coil 1, detection with 4A1-AP
T2 construct: Removal of the tag is not reported; also called coil 1 segment
Experimental: as §1

T1 sequence (P08670 whole entry): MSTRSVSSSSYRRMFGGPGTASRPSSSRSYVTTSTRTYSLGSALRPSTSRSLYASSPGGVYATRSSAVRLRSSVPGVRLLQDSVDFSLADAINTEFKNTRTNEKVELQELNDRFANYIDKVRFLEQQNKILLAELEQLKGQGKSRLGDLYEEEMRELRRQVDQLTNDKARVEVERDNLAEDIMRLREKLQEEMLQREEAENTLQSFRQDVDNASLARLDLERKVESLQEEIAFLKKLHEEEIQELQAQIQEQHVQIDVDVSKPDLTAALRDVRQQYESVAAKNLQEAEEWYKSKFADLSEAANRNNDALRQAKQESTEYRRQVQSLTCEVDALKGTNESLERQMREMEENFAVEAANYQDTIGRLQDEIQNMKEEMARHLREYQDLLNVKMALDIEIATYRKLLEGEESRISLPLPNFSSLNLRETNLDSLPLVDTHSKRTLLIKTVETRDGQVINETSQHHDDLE
T2 sequence (P08670 other isoform, or with tags, fused parts or gaps): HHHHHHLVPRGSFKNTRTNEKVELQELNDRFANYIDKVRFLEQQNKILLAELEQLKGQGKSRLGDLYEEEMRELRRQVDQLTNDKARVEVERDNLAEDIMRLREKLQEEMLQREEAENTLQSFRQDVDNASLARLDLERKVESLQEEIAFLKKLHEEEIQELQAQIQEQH

CCc1c(CC(N)=O)c2cc(OCCCP(=O)(O)O)ccc2n1Cc1ccccc1 [LY311727, [3-[[3-(2-amino-2-oxoethyl)-2-ethyl-1-(phenylmethyl)-1H-indol-5-yl]oxy]propyl]-phosphonic acid]
inhibition of hGIIA binding to full length vimentin [1]: c2 exhibited greater inhibition of hGIIA binding to full length vimentin than LY311727

cyclo-((2-Nal)-Leu-Ser-(2-Nal)-Arg) (cyclo([2Nal]LS[2Nal]R); SMILES CC(C)C[C@@H]1NC(=O)[C@H](Cc2ccc3ccccc3c2)NC(=O)[C@H](CCCNC(=N)N)NC(=O)[C@H](Cc2ccc3ccccc3c2)NC(=O)[C@H](CO)NC1=O)
growth in tumour volume [2]: significantly reduced the growth in tumour volume; also recorded: potently slows the growth of prostate cancer

B1: human group IIA secreted phospholipase A2 (hGIIA), recombinant, purified from conditioned media of CHO cell line 2B1 (enzyme)
chain: NLVNFHRMIKLTTGKEAALSYGFYGCHCGVGGRGSPKDATDRCCVTHDCCYKRLEKRGCGTKFLSYKFSNSGSRITCAKQDSCRSQLCECDKAAATCFARNKTTYNKKYQYYSNKHCRGSTPRC
notes: this was not applied; also called human sPLA2-IIA; sPLA2
binding result [3]: no binding (tested: 5-1000 ng/mL hGIIA)
